According to ChEMBL document CHEMBL2046376, “Synthesis and antimicrobial activity of amide derivatives of polyether antibiotic-salinomycin” (2012):
≈ marks a conversion by molar mass, not a printed value. Calls of active or inactive are those of the source. The rule behind the calls is not given here.

Legend:
Format in all cases: functional
Staphylococcus aureus [1] = assay: Antibacterial activity against hospital-acquired methicillin-sensitive Staphylococcus aureus 441/11 after 18 hrs by twofold serial agar dilution technique; settings: 441/11, 18 h
Staphylococcus aureus [2] = assay: Antibacterial activity against Staphylococcus aureus ATCC 29213 after 18 hrs by twofold serial agar dilution technique; settings: ATCC 29213, 18 h
Staphylococcus aureus [3] = assay: Antibacterial activity against hospital-acquired methicillin-sensitive Staphylococcus aureus 445/11 after 18 hrs by twofold serial agar dilution technique; settings: 445/11, 18 h
Staphylococcus aureus [4] = assay: Antibacterial activity against hospital-acquired methicillin-resistant Staphylococcus aureus 481/11 after 18 hrs by twofold serial agar dilution technique; settings: 481/11, 18 h
Pseudomonas aeruginosa [5] = assay: Antibacterial activity against Pseudomonas aeruginosa NCTC 6749 after 18 hrs by twofold serial agar dilution technique
Staphylococcus aureus [6] = assay: Antibacterial activity against Staphylococcus aureus ATCC 25923 after 18 hrs by twofold serial agar dilution technique; settings: ATCC 25923, 18 h
Staphylococcus aureus [7] = assay: Antibacterial activity against hospital-acquired methicillin-sensitive Staphylococcus aureus 444/11 after 18 hrs by twofold serial agar dilution technique; settings: 444/11, 18 h
Staphylococcus aureus [8] = assay: Antibacterial activity against hospital-acquired methicillin-resistant Staphylococcus aureus 450/11 after 18 hrs by twofold serial agar dilution technique; settings: 450/11, 18 h
Staphylococcus aureus [9] = assay: Antibacterial activity against hospital-acquired methicillin-resistant Staphylococcus aureus 482/11 after 18 hrs by twofold serial agar dilution technique; settings: 482/11, 18 h
Staphylococcus aureus [10] = assay: Antibacterial activity against hospital-acquired methicillin-resistant Staphylococcus aureus 394/10 after 18 hrs by twofold serial agar dilution technique; settings: 394/10, 18 h
[11] = test system: Staphylococcus epidermidis; assay: Antibacterial activity against Staphylococcus epidermidis ATCC 35984 after 18 hrs by twofold serial agar dilution technique; settings: ATCC 35984, 18 h
Staphylococcus aureus [12] = assay: Antibacterial activity against hospital-acquired methicillin-sensitive Staphylococcus aureus 446/11 after 18 hrs by twofold serial agar dilution technique; settings: 446/11, 18 h
Staphylococcus aureus [13] = assay: Antibacterial activity against Staphylococcus aureus ATCC 25923 assessed as zone of inhibition at 400 ug/disc after 18 hrs by disc diffusion method; settings: ATCC 25923, 18 h, read-out: DIZ
Staphylococcus aureus [14] = assay: Antibacterial activity against Staphylococcus aureus ATCC 6538 assessed as zone of inhibition at 400 ug/disc after 18 hrs by disc diffusion method; settings: ATCC 6538, 18 h, read-out: DIZ
Candida albicans [15] = assay: Antifungal activity against Candida albicans ATCC 10231 after 24 hrs by twofold serial agar dilution technique
Staphylococcus aureus [16] = assay: Antibacterial activity against hospital-acquired methicillin-sensitive Staphylococcus aureus 440/11 after 18 hrs by twofold serial agar dilution technique; settings: 440/11, 18 h
[17] = test system: Bordetella bronchiseptica; assay: Antibacterial activity against Bordetella bronchiseptica ATCC 4617 after 18 hrs by twofold serial agar dilution technique
Staphylococcus aureus [18] = assay: Antibacterial activity against Staphylococcus aureus ATCC 6538 after 18 hrs by twofold serial agar dilution technique; settings: ATCC 6538, 18 h
Proteus vulgaris = assay: Antibacterial activity against Proteus vulgaris NCTC 4635 after 18 hrs by twofold serial agar dilution technique
Candida parapsilosis = assay: Antifungal activity against Candida parapsilosis ATCC 22019 after 24 hrs by twofold serial agar dilution technique
Escherichia coli [19] = assay: Antibacterial activity against Escherichia coli NCTC 8196 after 18 hrs by twofold serial agar dilution technique
Staphylococcus aureus [20] = assay: Antibacterial activity against hospital-acquired methicillin-sensitive Staphylococcus aureus 449/11 after 18 hrs by twofold serial agar dilution technique; settings: 449/11, 18 h
Staphylococcus aureus [21] = assay: Antibacterial activity against Staphylococcus aureus NCTC 4163 after 18 hrs by twofold serial agar dilution technique; settings: NCTC 4163, 18 h
Staphylococcus aureus [22] = assay: Antibacterial activity against hospital-acquired methicillin-resistant Staphylococcus aureus 399/10 after 18 hrs by twofold serial agar dilution technique; settings: 399/10, 18 h
Staphylococcus aureus [23] = assay: Antibacterial activity against hospital-acquired methicillin-sensitive Staphylococcus aureus 447/11 after 18 hrs by twofold serial agar dilution technique; settings: 447/11, 18 h
Candida albicans [24] = assay: Antifungal activity against Candida albicans ATCC 90028 after 24 hrs by twofold serial agar dilution technique
[25] = test system: Staphylococcus epidermidis; assay: Antibacterial activity against Staphylococcus epidermidis ATCC 12228 assessed as zone of inhibition at 400 ug/disc after 18 hrs by disc diffusion method; settings: ATCC 12228, 18 h, read-out: DIZ
Staphylococcus aureus [26] = assay: Antibacterial activity against hospital-acquired methicillin-sensitive Staphylococcus aureus 448/11 after 18 hrs by twofold serial agar dilution technique; settings: 448/11, 18 h
Escherichia coli [27] = assay: Antibacterial activity against Escherichia coli ATCC 25922 after 18 hrs by twofold serial agar dilution technique
Staphylococcus aureus [28] = assay: Antibacterial activity against hospital-acquired methicillin-resistant Staphylococcus aureus 400/10 after 18 hrs by twofold serial agar dilution technique; settings: 400/10, 18 h
Pseudomonas aeruginosa [29] = assay: Antibacterial activity against Pseudomonas aeruginosa ATCC 27853 after 18 hrs by twofold serial agar dilution technique
Staphylococcus aureus [30] = assay: Antibacterial activity against hospital-acquired methicillin-resistant Staphylococcus aureus 451/11 after 18 hrs by twofold serial agar dilution technique; settings: 451/11, 18 h
Staphylococcus aureus [31] = assay: Antibacterial activity against Staphylococcus aureus NCTC 4163 assessed as zone of inhibition at 400 ug/disc after 18 hrs by disc diffusion method; settings: NCTC 4163, 18 h, read-out: DIZ
Staphylococcus aureus [32] = assay: Antibacterial activity against hospital-acquired methicillin-resistant Staphylococcus aureus 452/11 after 18 hrs by twofold serial agar dilution technique; settings: 452/11, 18 h
Pseudomonas aeruginosa [33] = assay: Antibacterial activity against Pseudomonas aeruginosa ATCC 15442 after 18 hrs by twofold serial agar dilution technique
Staphylococcus aureus [34] = assay: Antibacterial activity against Staphylococcus aureus ATCC 29213 assessed as zone of inhibition at 400 ug/disc after 18 hrs by disc diffusion method; settings: ATCC 29213, 18 h, read-out: DIZ
Staphylococcus aureus [35] = assay: Antibacterial activity against hospital-acquired methicillin-resistant Staphylococcus aureus 393/10 after 18 hrs by twofold serial agar dilution technique; settings: 393/10, 18 h
Staphylococcus aureus [36] = assay: Antibacterial activity against hospital-acquired methicillin-sensitive Staphylococcus aureus 442/11 after 18 hrs by twofold serial agar dilution technique; settings: 442/11, 18 h
Escherichia coli [37] = assay: Antibacterial activity against Escherichia coli ATCC 10538 after 18 hrs by twofold serial agar dilution technique
Staphylococcus aureus [38] = assay: Antibacterial activity against hospital-acquired methicillin-resistant Staphylococcus aureus 401/10 after 18 hrs by twofold serial agar dilution technique; settings: 401/10, 18 h
Staphylococcus aureus [39] = assay: Antibacterial activity against hospital-acquired methicillin-sensitive Staphylococcus aureus 443/11 after 18 hrs by twofold serial agar dilution technique; settings: 443/11, 18 h
[40] = test system: Staphylococcus epidermidis; assay: Antibacterial activity against Staphylococcus epidermidis ATCC 12228 after 18 hrs by twofold serial agar dilution technique; settings: ATCC 12228, 18 h
[41] = test system: Staphylococcus epidermidis; assay: Antibacterial activity against Staphylococcus epidermidis ATCC 35984 assessed as zone of inhibition at 400 ug/disc after 18 hrs by disc diffusion method; settings: ATCC 35984, 18 h, read-out: DIZ

CC[C@@H](C(=O)[C@@H](C)[C@@H](O)[C@H](C)[C@@H]1O[C@@H]([C@@H](CC)C(=O)NCCCN2CCCCC2)CC[C@@H]1C)[C@H]1O[C@]2(C=C[C@@H](O)[C@]3(CC[C@@](C)([C@H]4CC[C@](O)(CC)[C@H](C)O4)O3)O2)[C@H](C)C[C@@H]1C
MIC (Staphylococcus aureus [1]): 64 µg/mL (≈ 73.1 µM) | MIC (Staphylococcus aureus [2]): 128 µg/mL (≈ 146 µM) | MIC (Staphylococcus aureus [3]): 32 µg/mL (≈ 36.6 µM) | MIC (Staphylococcus aureus [4]): 64 µg/mL (≈ 73.1 µM) | Activity (Pseudomonas aeruginosa [5]): inactive | MIC (Staphylococcus aureus [6]): 128 µg/mL (≈ 146 µM) | MIC (Staphylococcus aureus [7]): 32 µg/mL (≈ 36.6 µM) | MIC (Staphylococcus aureus [8]): 64 µg/mL (≈ 73.1 µM) | MIC (Staphylococcus aureus [9]): 64 µg/mL (≈ 73.1 µM) | MIC (Staphylococcus aureus [10]): 64 µg/mL (≈ 73.1 µM) | MIC [11]: 256 µg/mL (≈ 292 µM) | MIC (Staphylococcus aureus [12]): 64 µg/mL (≈ 73.1 µM) | zone of inhibition at 400 µg/disc (Staphylococcus aureus [13]): 11 mm | zone of inhibition at 400 µg/disc (Staphylococcus aureus [14]): 13 mm | Activity (Candida albicans [15]): inactive | MIC (Staphylococcus aureus [16]): 32 µg/mL (≈ 36.6 µM) | Activity [17]: inactive | MIC (Staphylococcus aureus [18]): 128 µg/mL (≈ 146 µM) | Activity (Proteus vulgaris): inactive | Activity (Candida parapsilosis): inactive | Activity (Escherichia coli [19]): inactive | MIC (Staphylococcus aureus [20]): 32 µg/mL (≈ 36.6 µM) | MIC (Staphylococcus aureus [21]): 128 µg/mL (≈ 146 µM) | MIC (Staphylococcus aureus [22]): 64 µg/mL (≈ 73.1 µM) | MIC (Staphylococcus aureus [23]): 32 µg/mL (≈ 36.6 µM) | Activity (Candida albicans [24]): inactive | zone of inhibition at 400 µg/disc [25]: 11 mm | MIC (Staphylococcus aureus [26]): 32 µg/mL (≈ 36.6 µM) | Activity (Escherichia coli [27]): inactive | MIC (Staphylococcus aureus [28]): 64 µg/mL (≈ 73.1 µM) | Activity (Pseudomonas aeruginosa [29]): inactive | MIC (Staphylococcus aureus [30]): 32 µg/mL (≈ 36.6 µM) | zone of inhibition at 400 µg/disc (Staphylococcus aureus [31]): 12 mm | MIC (Staphylococcus aureus [32]): 32 µg/mL (≈ 36.6 µM) | Activity (Pseudomonas aeruginosa [33]): inactive | zone of inhibition at 400 µg/disc (Staphylococcus aureus [34]): 11 mm | MIC (Staphylococcus aureus [35]): 64 µg/mL (≈ 73.1 µM) | MIC (Staphylococcus aureus [36]): 32 µg/mL (≈ 36.6 µM) | Activity (Escherichia coli [37]): inactive | MIC (Staphylococcus aureus [38]): 64 µg/mL (≈ 73.1 µM) | MIC (Staphylococcus aureus [39]): 32 µg/mL (≈ 36.6 µM) | MIC [40]: 128 µg/mL (≈ 146 µM) | zone of inhibition at 400 µg/disc [41]: 11 mm

CC[C@@H](C(=O)[C@@H](C)[C@@H](O)[C@H](C)[C@@H]1O[C@@H]([C@@H](CC)C(=O)Nc2ccccc2)CC[C@@H]1C)[C@H]1O[C@]2(C=C[C@@H](O)[C@]3(CC[C@@](C)([C@H]4CC[C@](O)(CC)[C@H](C)O4)O3)O2)[C@H](C)C[C@@H]1C
MIC (Staphylococcus aureus [1]): 2 µg/mL (≈ 2.42 µM) | MIC (Staphylococcus aureus [2]): 2 µg/mL (≈ 2.42 µM) | MIC (Staphylococcus aureus [3]): 2 µg/mL (≈ 2.42 µM) | MIC (Staphylococcus aureus [4]): 4 µg/mL (≈ 4.84 µM) | Activity (Pseudomonas aeruginosa [5]): inactive | MIC (Staphylococcus aureus [6]): 2 µg/mL (≈ 2.42 µM) | MIC (Staphylococcus aureus [7]): 2 µg/mL (≈ 2.42 µM) | MIC (Staphylococcus aureus [8]): 4 µg/mL (≈ 4.84 µM) | MIC (Staphylococcus aureus [9]): 4 µg/mL (≈ 4.84 µM) | MIC (Staphylococcus aureus [10]): 4 µg/mL (≈ 4.84 µM) | MIC [11]: 4 µg/mL (≈ 4.84 µM) | MIC (Staphylococcus aureus [12]): 2 µg/mL (≈ 2.42 µM) | zone of inhibition at 400 µg/disc (Staphylococcus aureus [13]): 18 mm | zone of inhibition at 400 µg/disc (Staphylococcus aureus [14]): 20 mm | Activity (Candida albicans [15]): inactive | MIC (Staphylococcus aureus [16]): 2 µg/mL (≈ 2.42 µM) | Activity [17]: inactive | MIC (Staphylococcus aureus [18]): 2 µg/mL (≈ 2.42 µM) | Activity (Proteus vulgaris): inactive | Activity (Candida parapsilosis): inactive | Activity (Escherichia coli [19]): inactive | MIC (Staphylococcus aureus [20]): 2 µg/mL (≈ 2.42 µM) | MIC (Staphylococcus aureus [21]): 2 µg/mL (≈ 2.42 µM) | MIC (Staphylococcus aureus [22]): 4 µg/mL (≈ 4.84 µM) | MIC (Staphylococcus aureus [23]): 2 µg/mL (≈ 2.42 µM) | Activity (Candida albicans [24]): inactive | zone of inhibition at 400 µg/disc [25]: 22 mm | MIC (Staphylococcus aureus [26]): 2 µg/mL (≈ 2.42 µM) | Activity (Escherichia coli [27]): inactive | MIC (Staphylococcus aureus [28]): 4 µg/mL (≈ 4.84 µM) | Activity (Pseudomonas aeruginosa [29]): inactive | MIC (Staphylococcus aureus [30]): 4 µg/mL (≈ 4.84 µM) | zone of inhibition at 400 µg/disc (Staphylococcus aureus [31]): 19 mm | MIC (Staphylococcus aureus [32]): 4 µg/mL (≈ 4.84 µM) | Activity (Pseudomonas aeruginosa [33]): inactive | zone of inhibition at 400 µg/disc (Staphylococcus aureus [34]): 21 mm | MIC (Staphylococcus aureus [35]): 4 µg/mL (≈ 4.84 µM) | MIC (Staphylococcus aureus [36]): 2 µg/mL (≈ 2.42 µM) | Activity (Escherichia coli [37]): inactive | MIC (Staphylococcus aureus [38]): 4 µg/mL (≈ 4.84 µM) | MIC (Staphylococcus aureus [39]): 2 µg/mL (≈ 2.42 µM) | MIC [40]: 2 µg/mL (≈ 2.42 µM) | zone of inhibition at 400 µg/disc [41]: 20 mm
